Assay results from patent publication US11795439B2, “Methods for reprogramming cells and uses thereof” (GENESIS TECHNOLOGIES LIMITED, priority 2009, dated 2023).

B1: Noggin: Noggin (20 ng/ml, Peprotech), inhibits the BMP signaling pathway (protein, UniProt Q13253 28-232, looked up)
Noggin: QHYLHIRPAPSDNLPLVDLIEHPDPIFDPKEKDLNETLLRSLLGGHYDPGFMATSPPEDRPGGGGGAAGGAEDLAELDQLLRQRPSGAMPSEIKGLEFSEGLAQGKKQRLSKKLRRKLQMWLWSQTFCPVLYAWNDLGSRFWPRYVKVGSCFSKRSCSVPEGMVCKPSKSVHLTVLRWRCQRRGGQRCGWIPIQYPIISECKCSC

Assays:
Type in all cases: cell-based, human
fibroblast cells = test: Immunohistochemistry (Cellomics) % Sox2 and nestin positive cells with or without cytochalasin B (Table 4); settings: disrupting the cell cytoskeleton
Method: Cells were fixed with a 4% formaldehyde/PBS solution for 10 min at room temperature and subsequently permeabilized for 5 min with 0.1% Triton X-100™ in 4% formaldehyde/PBS. After two brief washes with PBS, unspecific antibody binding was blocked by a 30 min incubation with 5% normal goat serum in PBS. Then primary antibodies were added in 5% normal goat serum/PBS as follows: Mouse anti-Nestin (1:100, BD) as an […] present in neural stem cells and mouse anti-NCAM (1:100, Neuromics) as neuronal adhesion molecule. After a 2 h incubation the cells were washed 4 times for 5 min each with 0.1% Tween™/PBS. Appropriate fluorescence-tagged secondary antibody was used for visualization; Goat anti-mouse 546 (1:200, invitrogen) prepared in 5% normal goat serum/PBS was used. […] Fluorescence images were taken with a Cellomics™ ArrayScan HCS Reader microscopy system. To determine an estimate of the percentage of cells adopting neuronal or glial phenotypes, random fields were selected and for each field the total number of cells (as determined by counting Hoechst stained nuclei) and the total number of cells positive for neuronal or glial markers were determined.
Various combinations of neurogenic regulators and cytokines for epigenetic modifications were tested to ascertain their effect on reprogramming efficiency. […] Cells were then analyzed for neural stem cell markers. […]

[1] = test system: fibroblast cells within CDM; test: Trans-differentiation of cells within CDM by cytochalasin B, VPA, 5-Azacytidine, immunohistochemistry; settings: Day 14 CDM; cytochalasin B and NbActive medium only
Method: Fibroblast cells were cultured in DMEM medium in the presence of 10% FCS as described in Example I, followed by seeding onto 12-well plates pre-coated with laminin ([…]) at a concentration of 2×10^6 cells/ml in defined CDM Medium consisting of a 3:1 ratio of Dulbecco's modified Eagle medium (DMEM, high glucose (4.5 g/L) with L-glutamine and sodium pyruvate) and Ham's F-12 medium supplemented with the following components: EGF (4.2×10^−10M), bFGF (2.8×10^−10M), ITS (8.6×10^−5M), dexamethasone (1.0×10^−7M), L-ascorbic acid phosphate magnesium salt n-hydrate (3.2×10^−4M), L-3,3′,5-triiodothyronine (2.0×10^−10M), ethanolamine (10^−4M), GlutaMAX™ (4×10^−3M), glutathione (3.3×10^−6M), and 1% penicillin/streptomycin/amphotericin B. By culturing the fibroblast cells at hyperconfluent density in this completely chemically defined medium causes them to enter a high synthetic phase with a slow-down in proliferation, leading to the production of a living tissue equivalent (LTE) consisting of multiple layers of fibroblasts within de novo 3D extracellular matrix (CDM) that is completely synthesized by the fibroblasts themselves.
Day 14 CDM samples were treated with cytochalsin B (10 μg/ml, Calbiochem), with the concentration of cytochalsin B reduced from 10 μg/ml to 0 μg/ml (none) over 5 days while at the same time switching the medium from CDM Medium to NbActive medium. […]

HFFs = test: Sox2 immunohistochemistry with or without Noggin; settings: inhibiting the BMP signaling pathway
Method: This study was designed to evaluate the role of Noggin in the process of de-differentiation of HFFs towards NSLCs. HFFs were cultured and treated with cytochalasin B as described in Example III. After two days of treatment, cells were transfected by Nucleofection as described in Example II with the constructed vector Msi1/Ngn2. Briefly, after preparing the cells, they were mixed with 2 μg of total DNA (Msi1/Ngn2) and were co-transfect with MBD2 ([…]), by the Amaxa's Nucleofector™ according to the manufacturer's protocol. The samples were then transferred into a Laminin (10 μg/ml, Sigma) coated culture plate and cultured in the presence of Neural Proliferation Medium (NeuroCult™ proliferation Kit, StemCell Technologies) with recombinant hFGF (20 ng/ml, Peprotech), recombinant hEGF (20 ng/ml, Peprotech), and with or without the presence of Noggin (20 ng/ml, Peprotech). Samples were collected at different time points (1, 3, 4, 6, and 8 days) to analyze neuronal gene expression by RT-PCR and protein expression levels by immunohistochemistry.
Fluorescent imunohistochemical staining was performed on samples after 4 days of transfection as previously described in Example I. Transfected cells were stained and analyzed for expression of Sox2, the percentage of Sox2 was 33.3±1.00% in the presence of Noggin compared to 27.5±0.50% without the presence of noggin at day 4. […]

Row | Molecule | effect on reprogramming (fibroblast cells) | βIII-tubulin positive cells [1] | effect on reprogramming (HFFs)
1 | C=C1[C@@H](C)[C@H]2[C@H](Cc3ccccc3)NC(=O)[C@]23OC(=O)/C=C/[C@H](O)CCC[C@@H](C)C/C=C/[C@H]3[C@@H]1O [Cytochalasin B] | significantly enhanced reprogramming, but had no reprogramming effect on its own | failed to detect | 
2 | B1 |  |  | enhanced reprogramming, but had no reprogramming effect on its own
